Assays:
[1] = stability of a solution of molecular iodine in mineral oil at 40° C.; type: physicochemical
Experimental: The stability of a solution of molecular iodine in oil was measured. Crystals of elemental iodine were dissolved at room temperature in mineral oil. The concentrations of molecular iodine were approximately 0.6, 3.0 and 6.0 mg/mL. The absorbance was determined at 522 nm as a measure of the concentration of molecular iodine. Samples were stored in 500 mL amber glass bottles (Fisher Cat. No. 05-719-466) with Teflon lined screw-tops. The screw tops contained a septum to sample the fluids using a syringe without opening the bottle. The bottles were stored in an incubator at 40° C.
Samples were analyzed monthly to determine if there was a loss of molecular iodine. On the day of an analysis, a bottle was removed from the incubator, placed into room-temperature water covering approximately ¾ of the bottle, and allowed to cool for at least 6 hours. A sample was removed with a glass syringe and its absorbance was determined at 522 nm.

[2] = interaction of molecular iodine with mineral oil, UV-visible absorbance; type: physicochemical; conditions: elemental iodine dissolved in mineral oil, 300-600 nm
Experimental: The interaction of molecular iodine with mineral oil was evaluated. The following stock solutions were prepared for this experiment: 0.050 grams and 1.001 grams of elemental iodine crystals dissolved into about 80 ml of mineral oil in two different 100-ml flasks, and then filled to 100 ml with mineral oil. The absorbance spectrum between 300 and 600 nm for various mixtures of these two stock solutions were made in a UV/V is scanning spectrophotometer (Schimadzu 1125). The absorbance spectrums were analyzed and the extinction coefficient was calculated at appropriate wavelengths.
The UV-visible spectra of iodine-in-mineral oil presents two peaks in the range of 300-600 nm; one peak is at 302 nm and the other is at 522 nm (the maximum absorbance is at 522 nm). The absorbance is proportional to concentration as predicted by Beer's Law. […] The two peaks are at 302 nm and 522 nm and are slightly variable in the test concentration range. The extinction coefficients (moles per 1000 grams)^−1 (per cm)^−1) at 302 and 522 nm were calculated to be 219 and 905 respectively.

women = test: six month study of molecular iodine in 111 women (IND #56,523); type: in vivo; conditions: 111 women, 0, 1.5, 3.0 or 6.0 mg per day for six months, in situ generation of molecular iodine
Experimental: To determine the potential for molecular iodine to cause hyperthyroidism or hypothyroidism 111 women daily were dosed with either 0, 1.5, 3.0 or 6.0 mg of molecular iodine per day for six months. This study was performed under the guidance of the FDA (IND #56,523). The dosage form used relied upon in situ generation of molecular iodine as described in U.S. Pat. No. 5,885,592 as opposed to the aqueous iodine therapy of Table 5. The total exposure to molecular iodine in this study was 3.619 subject years.

[3] = administered orally; cited from earlier work
[4] = tested on: mammalian thyroid parameters; conditions: orally administered; cited from earlier work

SMILES	Percentage of Initial Absorbance (OD522nm) ([1]; 0.6 mg/mL I2 in mineral oil, Day 14) [%]	Percentage of Initial Absorbance (OD522nm) ([1]; 0.6 mg/mL I2 in mineral oil, Day 32) [%]	Percentage of Initial Absorbance (OD522nm) ([1]; 0.6 mg/mL I2 in mineral oil, Day 56) [%]	Percentage of Initial Absorbance (OD522nm) ([1]; 0.6 mg/mL I2 in mineral oil, Day 97) [%]	Percentage of Initial Absorbance (OD522nm) ([1]; 0.6 mg/mL I2 in mineral oil, Day 143) [%]	Percentage of Initial Absorbance (OD522nm) ([1]; 3.0 mg/mL I2 in mineral oil, Day 14) [%]	Percentage of Initial Absorbance (OD522nm) ([1]; 3.0 mg/mL I2 in mineral oil, Day 32) [%]	Percentage of Initial Absorbance (OD522nm) ([1]; 3.0 mg/mL I2 in mineral oil, Day 56) [%]	Percentage of Initial Absorbance (OD522nm) ([1]; 3.0 mg/mL I2 in mineral oil, Day 97) [%]	Percentage of Initial Absorbance (OD522nm) ([1]; 3.0 mg/mL I2 in mineral oil, Day 143) [%]	Percentage of Initial Absorbance (OD522nm) ([1]; 6.0 mg/mL I2 in mineral oil, Day 14) [%]	Percentage of Initial Absorbance (OD522nm) ([1]; 6.0 mg/mL I2 in mineral oil, Day 32) [%]	Percentage of Initial Absorbance (OD522nm) ([1]; 6.0 mg/mL I2 in mineral oil, Day 56) [%]	Percentage of Initial Absorbance (OD522nm) ([1]; 6.0 mg/mL I2 in mineral oil, Day 97) [%]	Percentage of Initial Absorbance (OD522nm) ([1]; 6.0 mg/mL I2 in mineral oil, Day 143) [%]	change of absorbance with time (stability in mineral oil) [2]	hyperthyroidism or hypothyroidism (women)	treatment-emergent adverse events, laboratory parameters, vital signs versus dose (women)	oral toxicity compared with iodide [3]	concentration negatively affecting mammalian thyroid parameters, fold less than for a comparable effect from molecular iodine [4] [fold]
II [I2, molecular iodine]	99.5	99.1	98.2	97.8	96.4	100.6	100.5	100.4	100.1	100.8	100.3	100.2	99.2	101.4	100.7	did not change with time	No hyperthyroidism or hypothyroidism was observed	not associated with increases in incidence, severity and causality of treatment-emergent adverse events or clinically significant changes in laboratory parameters or vital signs	less toxic than iodide	
I [iodide]																				10

Source: US20030026852A1, “Molecular iodine pharmaceutical composition” (SYMBOLLON CORPORATION, priority 2001, published 2003)
